Assay results published in patent publication US12150945B2, “Liver disease” (Lipocine Inc., priority 2018, dated 2024).

What was measured:
Format in all cases: in vivo, human
[1] = test system: liver fat; assay: Liver Fat Study: liver fat by MRI-PDFF in hypogonadal males treated with LPCN 1144 (Example 6); settings: for Mean relative liver fat % change: 16 weeks of treatment
Procedure: In an a prospective design open-label, multi-center, single arm ‘Liver Fat Study’ evaluating LPCN 1144 (oral testosterone undecanoate) treatment in hypogonadal patients, baseline % liver fat was assessed via MRI-PDFF in a subset of study patients (N=36).
This example is part of an ongoing Liver Fat Study which is an open-label, multi-center, single arm study evaluating LPCN 1144 treatment (e.g., androgen therapy, testosterone therapy, oral testosterone ester, or 225 mg testosterone undecanoate orally) in a cohort of 36 hypogonadal males (NCT03868059). Subjects with at least 10% baseline liver fat were evaluated which is indicative of subjects with NAFLD with the potential to have NASH. Interim results of seven of the nine subjects in the Liver Fat Study with baseline liver fat of at least 10% are presented as two subjects were unable to schedule an eight-week MRI-PDFF visit. Baseline mean liver fat of these seven subjects was 21.0%.
An MRI-PDFF study of 36 male hypogonadal subjects (having 2 morning testosterone levels of 300 ng/dL or less) was performed as part of an ongoing trial. Basic baseline labs including liver function tests (e.g., AST & ALT) and serum triglycerides were collected and analyzed. It was found by non-linear regression, that BMI (ALT, AST, serum Triglyceride) was associated with liver fat (P<0.006). It was found by non-linear regression, that serum triglyceride levels (obesity, hypertension, type 2 diabetes) were associated with liver fat (P<0.006).

[2] = test system: liver function enzymes; assay: Liver function enzymes (ALT, AST, ALP, GGT, bilirubin), change from baseline to end of study, trial of Example 1
Procedure: (§1) Oral testosterone therapy was evaluated in a multicenter, phase 3, randomized, open-label, active controlled, parallel-group study that included a 13-week efficacy phase and a 52-week safety phase. An active arm in which subjects received T gel was included for safety evaluation only.
(§2) Subjects were randomized in a 2:1 ratio to oral testosterone undecanoate or T gel. oral testosterone undecanoate subjects started at a dose of 225 mg TU (“testosterone undecanoate”) taken twice daily (total daily dose: 450 mg TU) every 12 hours. For optimal lymphatic absorption oral testosterone undecanoate must be administered with a meal. Therefore, subjects were instructed to administer oral testosterone undecanoate after a standard meal (defined as a meal consisting of 800 to 1400 calories with approximately 20% to 35% fat content). The oral testosterone undecanoate dose was titrated at Weeks 4 and 8, if necessary, based on results of intensive 24-hour PK blood sampling obtained at Weeks 3 and 7, respectively. Oral testosterone undecanoate subjects stayed at the clinic overnight during each intensive PK blood sampling period. […] Oral testosterone undecanoate dose levels permitted during the study were 150 mg BID, 225 mg BID, and 300 mg BID. Data collected during an intensive 24-hour PK sampling overnight stay at Week 13 were used for efficacy analysis; dose was not adjusted at this visit. Additional outpatient visits were conducted at Weeks 26, 39, and 52 during which single blood draws were performed 3 to 6 hours post morning dose. Dose was not adjusted during these visits.
(§3) T gel (ANDROGEL®) (testosterone gel for topical use) 1.62%, AbbVie, Chicago, Illinois, US) was supplied in non-aerosol, metered dose pumps that deliver 20.25 mg T per complete pump actuation. T gel was dosed according to product labeling. Subjects receiving T gel completed outpatient visits at Weeks 2 and 4 with single blood draws to determine titration and at Weeks 3 and 5 for dose changes, if necessary. They also completed an outpatient visit at Week 7 for safety assessments and at Weeks 13, 26, 39 and 52 during which single blood samples were obtained 3 to 6 hours after the morning dose. Dose was not adjusted during these visits. Overnight clinic stays were not required for T gel subjects.
(§4) Safety endpoints included adverse events (AEs), physical examination findings, vital signs, electrocardiograms (ECGs), and clinical laboratory tests. AEs were classified using the Medical Dictionary for Regulatory Activities (Version 16.1). Safety endpoints were summarized using descriptive statistics. Lab parameters were evaluated using two sample t-tests comparing change from baseline to end of study (EOS) across oral testosterone undecanoate and T gel subjects with p-values <0.05 considered statistically significant.

[3] = test system: SHBG; assay: Sex hormone binding globulin (SHBG) levels, trial of Example 1
Procedure: as §1
Subjects were randomized in a 2:1 ratio to oral testosterone undecanoate or T gel. oral testosterone undecanoate subjects started at a dose of 225 mg TU (“testosterone undecanoate”) taken twice daily (total daily dose: 450 mg TU) every 12 hours. For optimal lymphatic absorption oral testosterone undecanoate must be administered with a meal. […]
Serum levels of T, TU, dihydrotestosterone (DHT), dihydrotestosterone undecanoate (DHTU), and estradiol (E2) were evaluated in oral testosterone undecanoate treated subjects. […] Sex hormone binding globulin (SHBG) was evaluated in data from all subjects. Serum T concentrations at screening were measured using chemiluminescence immunoassay kits. Hormone assays for pharmacokinetic assessment were analyzed at PPD Bioanalytical Laboratory in Richmond, Virginia Serum samples were analyzed for T, DHT, TU, DHTU, and E2 using a validated liquid chromatography-tandem mass spectrometry (LC-MS/MS) assay.

[4] = test system: hematocrit, hemoglobin; assay: Androgenic parameters (hematocrit, hemoglobin), change from baseline to end of study, safety set, trial of Example 1
Procedure: as §1, §2, §3, §4

[5] = interim, eight-week MRI-PDFF, seven subjects with baseline liver fat of at least 10%
[6] = 4th quartile patients based on lab parameter level, 1 year study
[7] = Safety Set, baseline to end of study

## CCCCCCCCCCC(=O)O[C@H]1CC[C@H]2[C@@H]3CCC4=CC(=O)CC[C@]4(C)[C@H]3CC[C@]12C [oral testosterone undecanoate, testosterone undecanoate]
[1]; baseline liver fat of 10% or greater
  Mean relative liver fat % change: −40%
[1]; subjects having NAFLD (baseline liver fat of 5% or greater)
  Mean relative liver fat % change: −33%
[1]; end of study
  NAFLD resolved (baseline liver fat greater than or equal to 5% going to less than 5% at end of study), % of subjects: 48%
  mean relative liver fat change in patients with NAFLD resolution: −55%
[1]; end of study, greater than or equal to 5% baseline liver fat
  responder rate (% of patients with at least a 30% relative reduction in liver fat from baseline): 71%
[1]; end of study, greater than or equal to 8% baseline liver fat
  responder rate (% of patients with at least a 30% relative reduction in liver fat from baseline): 80%
[1]; end of study, greater than or equal to 10% baseline liver fat
  responder rate (% of patients with at least a 30% relative reduction in liver fat from baseline): 70%
[1]; [5]
  relative mean liver fat reduction from baseline: 38%
  responder rate: at least a 4.1% absolute reduction in liver fat from baseline: 86%
  responder rate: at least a 29% reduction in liver fat from baseline: 71%
[1]; interim, eight-week MRI-PDFF, seven subjects with baseline liver fat of at least 10%, baseline mean 21.0%
  absolute mean reduction from baseline of liver fat (MRI-PDFF): 7.6%
[2]; [6]
  ALP, mean change from baseline: −10.2 U/L
  ALP, mean change from baseline, %: −10.4%
  ALT, mean change from baseline: −10.0 U/L
  ALT, mean change from baseline, %: −16.7%
  AST, mean change from baseline: -6.3 U/L
  AST, mean change from baseline, %: −16.6%
  Albumin, mean change from baseline: -2.5 g/L
  Albumin, mean change from baseline, %: −3.1%
  Bilirubin, mean change from baseline: -0.18 mg/dL
  Bilirubin, mean change from baseline, %: −20.5%
  Creatinine, mean change from baseline: 0.01 mg/dL
  Creatinine, mean change from baseline, %: 0.8%
  GGT, mean change from baseline: −7.0 U/L
  GGT, mean change from baseline, %: −7.4%
[2]; [7]
  ALT, mean (SD) change from baseline to end of study: −3.07 (11.22) U/L
  AST, mean (SD) change from baseline to end of study: −1.5 (7.52) U/L
  Alkaline phosphatase, mean (SD) change from baseline to end of study: −4.1 (13.33) U/L
  Bilirubin, mean (SD) change from baseline to end of study: −0.43 (3.66) mcmol/L
  GGT, mean (SD) change from baseline to end of study: −2.0 (12.50) U/L
[3]; Week 13 (largest decrease)
  SHBG change from baseline: -11.75 nmol/L
[3]; each post-baseline visit
  Mean SHBG levels: decreased
[4]; 52-week safety phase
  Elevated hematocrit (>54%), number of subjects: 8 subjects
  subjects withdrawn for elevated hematocrit (>54%): 1.4%
[4]; Safety Set, N = 314, baseline to end of study
  Hematocrit, mean (SD) change from baseline to end of study: 2.54 (3.41) %
[4]; [7]
  APTT, mean (SD) change from baseline to end of study: 0.61 (4.07)
  Hemoglobin, mean (SD) change from baseline to end of study: 7.2 (10.65) g/L
  PSA, mean (SD) change from baseline to end of study: 0.27 (0.97) mcg/L
  Platelets, mean (SD) change from baseline to end of study: 8.5 (31.34) 10^9/L
  Prothrombin time, mean (SD) change from baseline to end of study: 0.31 (1.14) sec
[4]; in vivo
  hemoglobin, pretreatment to EOS: Small and similar increases
